Source: US20240140933A1, “OXOINDOLINE COMPOUND FOR THE TREATMENT OF INFLAMMATORY DISEASES OR CANCER” (Hoffmann-La Roche Inc., priority 2021, published 2024)

Each compound was assayed against PDHK1 (Homo sapiens (Human), UniProt Q15118) (assay: PDHK1 enzymatic assay (AlphaScreen, phosphorylation of PDHE1 S293)). Settings: 1 nM PDHK1, 25 nM PDHE1, 20 μM ATP, 30° C. for 45 minutes.
Format: biochemical
Source text: Pyruvate dehydrogenase complex (PDHc) is an enzyme that catalyzes the reaction of pyruvate and a lipoamide to give the acetylated dihydrolipoamide and carbon dioxide. PDHc has three subunits E1, E2 and E3. E1 has 3 serine phosphorylation sites S293, S232, S300. If E1 was phosphorylated, PDH will be inactivated. PDHK can phosphorylate PDH protein (also named PDHE1) in PDH complex (PDC) to inactivate it.

PDHK1, sequence (Q15118 29-436): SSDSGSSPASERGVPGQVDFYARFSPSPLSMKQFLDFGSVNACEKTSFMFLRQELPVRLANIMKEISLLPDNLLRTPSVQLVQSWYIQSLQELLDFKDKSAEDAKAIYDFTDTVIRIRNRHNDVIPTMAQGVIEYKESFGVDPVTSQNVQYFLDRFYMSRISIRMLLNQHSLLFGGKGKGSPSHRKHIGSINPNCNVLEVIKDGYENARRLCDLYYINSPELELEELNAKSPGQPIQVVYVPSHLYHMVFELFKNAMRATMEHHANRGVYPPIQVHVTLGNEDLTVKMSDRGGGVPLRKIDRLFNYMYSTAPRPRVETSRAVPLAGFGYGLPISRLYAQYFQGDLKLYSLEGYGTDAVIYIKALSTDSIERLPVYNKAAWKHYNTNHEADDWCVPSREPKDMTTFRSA

Row | SMILES | Enzymatic IC50 against PDHK1 [µg/mL]
1 | CCNc1cc(F)cc2c1NC(=O)C2(C)N1CCC[C@@H](Oc2ccc(O)c(C=O)c2)C1 (stereo partly drawn) [Example 2, 5-[[(3R)-1-[7-(ethylamino)-5-fluoro-3-methyl-2-oxo-indolin-3-yl]-3-piperidyl]oxy]-2-hydroxy-benzaldehyde] | 0.015
2 | CCNc1cc(F)cc2c1NC(=O)C2(C)N1CC[C@H](F)[C@@H](Nc2ccc(C#N)nc2)C1 (stereo partly drawn) [Example 48, 5-[[(3S,4S)-1-[7-(ethylamino)-5-fluoro-3-methyl-2-oxo-indolin-3-yl]-4-fluoro-3-piperidyl]amino]pyridine-2-carbonitrile] | 0.025
3 | CCNc1cc(F)cc2c1NC(=O)C2(C)N1CCC[C@@H](NC(=O)c2ccc(S(=O)(=O)F)cc2)C1 (stereo partly drawn) [Example 43, 4-[[(3R)-1-[7-(ethylamino)-5-fluoro-3-methyl-2-oxo-indolin-3-yl]-3-piperidyl]carbamoyl]benzenesulfonyl fluoride] | 0.016
4 | CCNc1cc(F)cc2c1NC(=O)C2(C)N1CC[C@H](c2ccccc2)[C@@H](Nc2ccc(C#N)nc2)C1 (stereo partly drawn) [Example 55, 5-[[(3R,4R)-1-[7-(ethylamino)-5-fluoro-3-methyl-2-oxo-indolin-3-yl]-4-phenyl-3-piperidyl]amino]pyridine-2-carbonitrile] | 0.037
5 | CCNc1cc(F)cc2c1NC(=O)C2(C)N1CCC[C@@H](Nc2cc(C)c(S(=O)(=O)F)cn2)C1 (stereo partly drawn) [Example 30, 4-methyl-6-[[(3R)-1-[7-(ethylamino)-5-fluoro-3-methyl-2-oxo-indolin-3-yl]-3-piperidyl]amino]pyridine-3-sulfonyl fluoride] | 0.065
6 | CCNc1cc(F)cc2c1NC(=O)C2(C)N1CC[C@H](c2ccccc2Oc2ccc(C(=O)O)cc2)[C@@H](NC(C)=O)C1 (stereo partly drawn) [Example 56, 4-[2-[(3R,4R)-3-acetamido-1-[7-(ethylamino)-5-fluoro-3-methyl-2-oxo-indolin-3-yl]-4-piperidyl]phenoxy]benzoic acid] | 0.005
7 | CCNc1cc(F)cc2c1NC(=O)C2(CC)N1CCC[C@@H](N(C(N)=O)c2ccc(C#N)nc2)C1 (stereo partly drawn) [Example 26, 1-(6-cyano-3-pyridyl)-1-[(3R)-1-[3-ethyl-7-(ethylamino)-5-fluoro-2-oxo-indolin-3-yl]-3-piperidyl]urea] | 0.067

Next, values leading:

Row | Enzymatic IC50 against PDHK1 [µg/mL] | SMILES
8 | 0.142 | CCNc1cc(F)cc2c1NC(=O)C2(CC)N1CCC[C@@H](N(C(C)=O)c2ccc(C#N)nc2)C1 (stereo partly drawn) [Example 25, N-(6-cyano-3-pyridyl)-N-[(3R)-1-[3-ethyl-7-(ethylamino)-5-fluoro-2-oxo-indolin-3-yl]-3-piperidyl]acetamide]
9 | 0.030 | CCNc1cc(F)cc2c1NC(=O)C2(C)N1CCC[C@@H](NC(=O)c2cc(F)c(O)c(F)c2)C1 (stereo partly drawn) [Example 35, N-[(3R)-1-[7-(ethylamino)-5-fluoro-3-methyl-2-oxo-indolin-3-yl]-3-piperidyl]-3,5-difluoro-4-hydroxy-benzamide]
10 | 0.016 | CCNc1cc(F)cc2c1NC(=O)C2(C)N1CCC[C@@H](N(C)c2ccc(C(N)=O)nc2)C1 (stereo partly drawn) [Example 24, 5-[[(3R)-1-[7-(ethylamino)-5-fluoro-3-methyl-2-oxo-indolin-3-yl]-3-piperidyl]-methyl-amino]pyridine-2-carboxamide]
11 | 0.017 | CCNc1cc(F)cc2c1NC(=O)C2(C)N1CCC[C@@H](NC(=O)C2CC3(C2)CN(C(=O)CCl)C3)C1 (stereo partly drawn) [Example 40, 2-(2-chloroacetyl)-N-[(3R)-1-[7-(ethylamino)-5-fluoro-3-methyl-2-oxo-indolin-3-yl]-3-piperidyl]-2-azaspiro[3.3]heptane-6-carboxamide]

Same assay, conditions: 1 nM PDHK1, 25 nM PDHE1, 20 μM ATP, 30° C. for 45 minutes; read-out: Enzymatic IC50 against PDHK1 (converted)

Row | SMILES | IC50 [nM]
12 | CCNc1cc(F)cc2c1NC(=O)C2(C)N1CCC[C@@H](Cc2ccc(C#N)cc2)C1 (stereo partly drawn) [Example 7, 4-[[(3S)-1-[7-(ethylamino)-5-fluoro-3-methyl-2-oxo-indolin-3-yl]-3-piperidyl]methyl]benzonitrile] | 379
